Reference: patent publication US20230123334A1, “AMINO LIPID COMPOUND, PREPARATION METHOD THEREFOR, AND APPLICATION THEREOF” (SHENZHEN SHENXIN BIOTECHNOLOGY CO., LTD., priority 2020, published 2023)

What follows are molecules tested on MCF7 cells (assay: Transfection of MCF7 cell line, mRNA vectors). Conditions: 50 ng EGFP mRNA per well.
Type: cell-based
Method in brief: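 Efficiency was scored as the fraction of GFP-fluorescent cells over all Hoechst-counted cells after delivery of 50 ng EGFP mRNA per well. Cells were MCF7 grown in serum-supplemented DMEM, and Lipofectamine2000 served as reference.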

| Compound | Absolute mRNA transfection efficiency in MCF7 cells |
| --- | --- |
| CCCCCCCCCCCCCCSc1nc(NCCN2CCN(C)CC2)nc(SCCCCCCCCC)n1 [Compound S9S14D5] | 2.1% |
| CCCCCCCCCCCCCCSc1nc(NCCCN(C)C)nc(SCCCCCCCCC)n1 [Compound S9S14D6] | 12.2% |
| CCCCCCCCCCCCCCSc1nc(NCCCN2CCOCC2)nc(SCCCCCCCCC)n1 [Compound S9S14D8] | 14.8% |
| CCCCCCCCCCCCCCSc1nc(NCCCN2CCN(C)CC2)nc(SCCCCCCCCC)n1 [Compound S9S14D9] | 19.1% |
| CCCCCCCCCCCCCCSc1nc(NCC2CCN(C)CC2)nc(SCCCCCCCCC)n1 [Compound S9S14D10] | 50.3% |

These molecules were tested on HEK293 cells (assay: Preliminary screening as mRNA vectors, EGFP mRNA transfection of HEK293 cells). Conditions: HEK293 cells, 96-well plates, EGFP mRNA 50 ng per well; percentage of GFP fluorescent cells relative to total number of cells (Hoechst).
Type: cell-based
Method in brief: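 Each well of HEK293 cells received 50 ng of EGFP mRNA. Efficiency was expressed as percent GFP-expressing cells over Hoechst-defined total cell number.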

| Compound | Absolute mRNA transfection efficiency in HEK293 cells |
| --- | --- |
| CCCCCCCCCCCCCCSc1nc(NCCN2CCN(C)CC2)nc(SCCCCCCCCC)n1 [Compound S9S14D5] | 32.3% |
| CCCCCCCCCCCCCCSc1nc(NCCCN(C)C)nc(SCCCCCCCCC)n1 [Compound S9S14D6] | 80.0% |
| CCCCCCCCCCCCCCSc1nc(NCCCN2CCOCC2)nc(SCCCCCCCCC)n1 [Compound S9S14D8] | 11.6% |
| CCCCCCCCCCCCCCSc1nc(NCCCN2CCN(C)CC2)nc(SCCCCCCCCC)n1 [Compound S9S14D9] | 68.8% |
| CCCCCCCCCCCCCCSc1nc(NCC2CCN(C)CC2)nc(SCCCCCCCCC)n1 [Compound S9S14D10] | 91.0% |

What follows are molecules tested on Hela cells (assay: Transfection of Hela cell line, DNA vectors). Conditions: 75 ng plasmid DNA, GFP cells / total cells.
Type: cell-based
Method in brief: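 Amino lipid/DOPE liposomes in sodium acetate pH 5.6 were complexed with 75 ng psin-EGFP-IRES-Puro plasmid for 30 min at room temperature, then mixed with 3-5×10^4 Hela cells in DMEM/10% FBS at 37° C. Hoechst stain after 20-24 h, imaging after a further 20-24 h. Efficiency = GFP-positive cells / total nuclei.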

| Compound | Absolute DNA transfection efficiency in Hela cells |
| --- | --- |
| CCCCCCCCCCCCCCSc1nc(NCCN2CCN(C)CC2)nc(SCCCCCCCCC)n1 [Compound S9S14D5] | 7.3% |
| CCCCCCCCCCCCCCSc1nc(NCCCN(C)C)nc(SCCCCCCCCC)n1 [Compound S9S14D6] | 9.6% |
| CCCCCCCCCCCCCCSc1nc(NCCCN2CCOCC2)nc(SCCCCCCCCC)n1 [Compound S9S14D8] | 10.8% |
| CCCCCCCCCCCCCCSc1nc(NCCCN2CCN(C)CC2)nc(SCCCCCCCCC)n1 [Compound S9S14D9] | 14.8% |
| CCCCCCCCCCCCCCSc1nc(NCC2CCN(C)CC2)nc(SCCCCCCCCC)n1 [Compound S9S14D10] | 7.2% |

The molecules below were run on Hela cells (assay: Transfection of Hela cell line, mRNA vectors). Conditions: 50 ng EGFP mRNA per well.
Type: cell-based
Method in brief: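 Transfection efficiency was scored as GFP-fluorescent cells over Hoechst-stained total nuclei, with Lipofectamine2000 as reference reagent. Each well of HeLa cells, grown in DMEM plus 10% FBS, received 50 ng EGFP mRNA.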

| Compound | Absolute mRNA transfection efficiency in Hela cells |
| --- | --- |
| CCCCCCCCCCCCCCSc1nc(NCCN2CCN(C)CC2)nc(SCCCCCCCCC)n1 [Compound S9S14D5] | 7.32% |
| CCCCCCCCCCCCCCSc1nc(NCCCN(C)C)nc(SCCCCCCCCC)n1 [Compound S9S14D6] | 9.6% |
| CCCCCCCCCCCCCCSc1nc(NCCCN2CCOCC2)nc(SCCCCCCCCC)n1 [Compound S9S14D8] | 10.8% |
| CCCCCCCCCCCCCCSc1nc(NCCCN2CCN(C)CC2)nc(SCCCCCCCCC)n1 [Compound S9S14D9] | 14.8% |
| CCCCCCCCCCCCCCSc1nc(NCC2CCN(C)CC2)nc(SCCCCCCCCC)n1 [Compound S9S14D10] | 7.5% |

Each molecule was assayed on HEK293 cells (assay: Preliminary screening as DNA vectors, GFP transfection of HEK293 cells). Conditions: HEK293 cells; lipid/DOPE liposome with 75 ng plasmid DNA (psin-EGFP-IRES-Puro); number of cells expressing GFP divided by total number of nuclei (Hoechst).
Type: cell-based
Method in brief: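 Lipid + DOPE liposomes (NaOAc, pH 5.6) complexed w/ 75 ng psin-EGFP-IRES-Puro, 30 min RT; added to 3-5×10^4 HEK293/well, 37° C. Hoechst 0.2 μg/mL at 20-24 h, imaged after further 20-24 h. Efficiency = GFP+ cells / total nuclei.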

| Compound | Absolute DNA transfection efficiency in HEK293 cells |
| --- | --- |
| CCCCCCCCCCCCCCSc1nc(NCCN2CCN(C)CC2)nc(SCCCCCCCCC)n1 [Compound S9S14D5] | 14.6% |
| CCCCCCCCCCCCCCSc1nc(NCCCN(C)C)nc(SCCCCCCCCC)n1 [Compound S9S14D6] | 19.2% |
| CCCCCCCCCCCCCCSc1nc(NCCCN2CCOCC2)nc(SCCCCCCCCC)n1 [Compound S9S14D8] | 21.0% |
| CCCCCCCCCCCCCCSc1nc(NCCCN2CCN(C)CC2)nc(SCCCCCCCCC)n1 [Compound S9S14D9] | 28.4% |
| CCCCCCCCCCCCCCSc1nc(NCC2CCN(C)CC2)nc(SCCCCCCCCC)n1 [Compound S9S14D10] | 14.5% |

What follows are molecules tested on cardiomyocytes (assay: Screening as DNA vectors in cardiomyocytes). Conditions: method as Example 4.
Type: cell-based
Design: concentration or dose not given beside the values
Method in brief: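 hESC-derived cardiomyocytes in DMEM with 10% FBS were transfected with a GFP DNA vector; Lipofectamine Stem served as positive control. Read-out: percentage of GFP-positive cells relative to total cells counted by Hoechst nuclear stain.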

| Compound | Absolute DNA transfection efficiency in cardiomyocytes |
| --- | --- |
| CCCCCCCCCCCCCCSc1nc(NCCN2CCN(C)CC2)nc(SCCCCCCCCC)n1 [Compound S9S14D5] | 4.6% |
| CCCCCCCCCCCCCCSc1nc(NCCCN(C)C)nc(SCCCCCCCCC)n1 [Compound S9S14D6] | 10.5% |
| CCCCCCCCCCCCCCSc1nc(NCCCN2CCOCC2)nc(SCCCCCCCCC)n1 [Compound S9S14D8] | 6.1% |
| CCCCCCCCCCCCCCSc1nc(NCCCN2CCN(C)CC2)nc(SCCCCCCCCC)n1 [Compound S9S14D9] | 11.1% |
| CCCCCCCCCCCCCCSc1nc(NCC2CCN(C)CC2)nc(SCCCCCCCCC)n1 [Compound S9S14D10] | 7.6% |

These molecules were tested on embryonic stem cells (hESC2) (assay: Screening as mRNA vectors in embryonic stem cells). Conditions: 50 ng EGFP mRNA per well.
Type: cell-based
Method in brief: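 EGFP mRNA (50 ng per well) transfected into hESC2 cells grown in mTeSR1; Lipofectamine Stem served as positive control. Read-out: GFP-fluorescent cells as percentage of total cells.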

| Compound | Absolute mRNA transfection efficiency in embryonic stem cells |
| --- | --- |
| CCCCCCCCCCCCCCSc1nc(NCCN2CCN(C)CC2)nc(SCCCCCCCCC)n1 [Compound S9S14D5] | 22.5% |
| CCCCCCCCCCCCCCSc1nc(NCCCN(C)C)nc(SCCCCCCCCC)n1 [Compound S9S14D6] | 1.7% |
| CCCCCCCCCCCCCCSc1nc(NCCCN2CCOCC2)nc(SCCCCCCCCC)n1 [Compound S9S14D8] | 0.3% |
| CCCCCCCCCCCCCCSc1nc(NCCCN2CCN(C)CC2)nc(SCCCCCCCCC)n1 [Compound S9S14D9] | 16.4% |
| CCCCCCCCCCCCCCSc1nc(NCC2CCN(C)CC2)nc(SCCCCCCCCC)n1 [Compound S9S14D10] | 23.1% |

What follows are molecules tested on embryonic stem cells (hESC2) (assay: Screening as DNA vectors in embryonic stem cells, flow cytometry). Conditions: 75 ng plasmid DNA, 48 hours after transfection, flow cytometer.
Type: cell-based
Method in brief: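 hESC2 cells in mTeSR1 on matrigel transfected with 75 ng pSin-EGFP-IRES-Puro complexed with amino lipid/DOPE liposomes formed in sodium acetate pH 5.6; 37 °C, 5% CO2. After 48 h, GFP-positive cells counted by flow cytometry (≥2000 cells), efficiency also expressed relative to Lipofectamine Stem.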

| Compound | Absolute DNA transfection efficiency in embryonic stem cells |
| --- | --- |
| CCCCCCCCCCCCCCSc1nc(NCCN2CCN(C)CC2)nc(SCCCCCCCCC)n1 [Compound S9S14D5] | 0.7% |
| CCCCCCCCCCCCCCSc1nc(NCCCN(C)C)nc(SCCCCCCCCC)n1 [Compound S9S14D6] | 2.0% |
| CCCCCCCCCCCCCCSc1nc(NCCCN2CCOCC2)nc(SCCCCCCCCC)n1 [Compound S9S14D8] | 0.7% |
| CCCCCCCCCCCCCCSc1nc(NCCCN2CCN(C)CC2)nc(SCCCCCCCCC)n1 [Compound S9S14D9] | 2.5% |
| CCCCCCCCCCCCCCSc1nc(NCC2CCN(C)CC2)nc(SCCCCCCCCC)n1 [Compound S9S14D10] | 0.7% |

What follows are molecules tested on MCF7 cells (assay: Transfection of MCF7 cell line, DNA vectors). Conditions: plasmid DNA, GFP cells / total cells.
Type: cell-based
Design: concentration or dose not given beside the values
Method in brief: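 Read-out: GFP-positive cells as % of all Hoechst-stained nuclei after 96-well transfection of MCF7 cells grown in serum-supplemented DMEM. Positive control was Lipofectamine2000, used per manufacturer's protocol.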

| Compound | Absolute DNA transfection efficiency in MCF7 cells |
| --- | --- |
| CCCCCCCCCCCCCCSc1nc(NCCN2CCN(C)CC2)nc(SCCCCCCCCC)n1 [Compound S9S14D5] | 17.9% |
| CCCCCCCCCCCCCCSc1nc(NCCCN(C)C)nc(SCCCCCCCCC)n1 [Compound S9S14D6] | 44.4% |
| CCCCCCCCCCCCCCSc1nc(NCCCN2CCOCC2)nc(SCCCCCCCCC)n1 [Compound S9S14D8] | 6.4% |
| CCCCCCCCCCCCCCSc1nc(NCCCN2CCN(C)CC2)nc(SCCCCCCCCC)n1 [Compound S9S14D9] | 38.2% |
| CCCCCCCCCCCCCCSc1nc(NCC2CCN(C)CC2)nc(SCCCCCCCCC)n1 [Compound S9S14D10] | 50.5% |

The molecules below were run on cardiomyocytes (assay: Screening as mRNA vectors in cardiomyocytes). Conditions: 50 ng EGFP mRNA per well.
Type: cell-based
Method in brief: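 Cardiomyocytes differentiated from hESC, in DMEM with 10% FBS, were transfected with 50 ng EGFP mRNA per well. The read-out was GFP-positive cells as a percentage of Hoechst-stained nuclei, with Lipofectamine Stem as positive control.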

| Compound | Absolute mRNA transfection efficiency in cardiomyocytes |
| --- | --- |
| CCCCCCCCCCCCCCSc1nc(NCCN2CCN(C)CC2)nc(SCCCCCCCCC)n1 [Compound S9S14D5] | 0.6% |
| CCCCCCCCCCCCCCSc1nc(NCCCN(C)C)nc(SCCCCCCCCC)n1 [Compound S9S14D6] | 8.5% |
| CCCCCCCCCCCCCCSc1nc(NCCCN2CCOCC2)nc(SCCCCCCCCC)n1 [Compound S9S14D8] | 1.0% |
| CCCCCCCCCCCCCCSc1nc(NCCCN2CCN(C)CC2)nc(SCCCCCCCCC)n1 [Compound S9S14D9] | 12.4% |
| CCCCCCCCCCCCCCSc1nc(NCC2CCN(C)CC2)nc(SCCCCCCCCC)n1 [Compound S9S14D10] | 34.4% |
